According to patent US7084158B2, “Substituted propargylamines” (Bayer Cropscience S.A., priority 2001, dated 2006):

Columns and labels:
Type in all cases: in vivo
Parameters in all cases: key: compounds were considered to be active when, at a concentration of 500 ppm or less, they had an activity on the harmful organisms of 50% or more
[1] = tested on: Heliothis virescens; test: Example B: tobacco budworm eggs on filter paper/insect diet, mortality; settings: 500 ppm or less; 24-hour-old eggs dipped, diet treated; after 6 days
[2] = tested on: Carpocapsa pomonella; test: Example D: dipped apples, codling moth L1 larvae mortality; settings: 500 ppm or less, after 14 days
Experimental: Apples were dipped into an aqueous solution of the formulated compound to be examined. The apples were then populated with 10 L1 larvae of the codling moth (Carpocapsa pomonella). After 14 days of storage at about 25° C., the effect of the compound on the larvae was determined (mortality). The compounds of the following examples were active: Nos. 14, 15, 17, 18, 70, 1007, 1008, 1009, 1036, 1038, 197.

[3] = tested on: Aedes aegypti; test: Example AG: microtiter plate, yellow fever mosquito larvicidal activity; settings: 500 ppm or less, after 3 days
[4] = tested on: Meloidogyne incognita; test: Example H: root gall nematode larvae immobilization (contact activity); settings: 500 ppm or less; 2nd stage larvae; 6 days permanent exposure
Experimental: In a glass vessel, an aqueous solution of the formulated compound to be examined was added to about 3000 freshly hatched active (mobile) larvae (2nd development stage) of the root gall nematode (Meloidogyne incognita) (final volume 20 ml). After 6 days of permanent exposure of the nematode larvae, the percentage of the individual larvae immobilized by the activity of the compound was determined in comparison to the untreated controls (contact activity). The compounds of the following examples were active: 39, 52, 159, 161, 162, 163, 164, 165, 1045, 1046, 1047, 179, 183, 187, 1048, 298, 206, 208, 227, 230, 1061, 237, 238, 245, 250, 255, 256, 260, 268, 269, 274, 275, 288, 290.

[5] = tested on: Nilaparvata lugens; test: Example A: rice leaf dip, leafhopper larvae mortality; settings: 500 ppm or less; L3 larvae on dipped rice plants; after 6 days
Experimental: The leaves of 12 rice plants having a stem length of 8 cm were dipped for 5 seconds into an aqueous solution of the formulated compound to be examined. After the solution had run off, the rice plants treated in this manner were placed into a Petri dish and populated with about 20 larvae (L3 stage) of the rice leafhopper species Nilaparvata lugens. The Petri dish was closed and then stored in a climatized chamber (16 hours of light/day, 25° C., 40–60% relative atmospheric humidity). After 6 days of storage, the mortality among the leafhopper larvae was determined. The compounds of the following examples were active: Nos. 29, 32, 42, 43, 51, 70, 84, 1002, 1004, 1005, 1040, 180, 184, 193, 197, 203, 209, 1059, 264, 265, 1066.

[6] = tested on: Spodoptera littoralis; test: Example G: treated L2 larvae and insect diet, Egyptian cotton leafworm mortality; settings: 500 ppm or less, after 6 days
Experimental: A Petri dish whose bottom was covered with filter paper and which contained about 5 ml of insect diet is prepared. Five L2 larvae of the Egyptian cotton leafworm (Spodoptera littoralis) were counted into a small beaker. 200 μl of an aqueous solution of the formulated preparation to be examined were pipetted into the beaker. The treated larvae were then poured into the Petri dish, and a further 200 μl of the aqueous solution were distributed over the insect diet. The Petri dish was closed and then stored at about 25° C. in a climatized chamber. After 6 days of storage, the effect of the compound on the larvae was determined (mortality). The compounds of the following examples were active: 29, 70, 60, 159, 1005, 1040, 1042, 1044, 1045, 1046, 1047.

[7] = tested on: Diabrotica undecimpunctata; test: Example C: corn rootworm eggs with maize corn, mortality; settings: 500 ppm or less; 4-5-day-old eggs; after 6 days

Compound | effect on the eggs and hatched larvae (mortality) [1] | larvicidal activity [3] | percentage of larvae immobilized (contact activity) [4] | further results
CC1CCN(CC#Cc2ccc(Cl)c(Cl)c2Cl)CC1 [Example 15] | active |  |  | effect on the larvae (mortality) [2]: active
CC1CCN(CC#Cc2ccc(C=NOCc3ccccc3)s2)CC1 [Example 292] | active | active |  | 
CC1CCCCN1CC#Cc1cc(C(F)(F)F)cc(C(F)(F)F)c1 (stereo not drawn) [Example 39] |  |  | active | 
CCc1ccc(C#CCN2CCC(C)CC2)cc1C(F)(F)F [Example 264] |  | active |  | mortality among the leafhopper larvae [5]: active
C[C@@H]1C[C@H](C)CN(CC#Cc2cc(C(F)(F)F)cc(C(F)(F)F)c2)C1.Cl [Example 1044] | active |  |  | effect on the larvae (mortality) [6]: active
CC1CCN(CC#Cc2ccc(Br)c(C(F)(F)F)c2)CC1.O=C(O)/C=C\C(=O)O [Example 1066] |  | active |  | mortality among the leafhopper larvae [5]: active; effect on the eggs and hatched larvae (mortality) [7]: active
CC1(C)CCCC(C)(C)N1CC#Cc1ccccc1 [Example 84] |  |  |  | mortality among the leafhopper larvae [5]: active
CSc1nc(C#CCN2CC(C)CC(C)C2)cc(C(F)(F)F)n1 (stereo not drawn) [Example 159] |  |  | active | effect on the larvae (mortality) [6]: active
CC1CCN(CC#Cc2ccc(Br)s2)CC1 [Example 215] | active | active |  | 
CC1CCN(CC#Cc2ccc(-c3ccc(OC(F)(F)F)cc3)s2)CC1 [Example 244] | active | active |  | 
CC1CCN(CC#Cc2cc(C(F)(F)F)cc(C(F)(F)F)n2)CC1.O=C(O)C(F)(F)F [Example 1046] | active |  | active | effect on the larvae (mortality) [6]: active
CSc1nc(C#CCN2CCCCCC2)cc(C(F)(F)F)n1 [Example 164] |  |  | active | 
CN1CCN(CC#Cc2ccc(C(F)(F)F)cc2)CC1 [Example 52] |  |  | active | 
Cc1nc(C#CCN2CCC(C)CC2)cc(C(F)(F)F)n1 [Example 161] |  |  | active | 
CC1CCN(CC#Cc2cccc(-c3nccs3)c2)CC1 [Example 227] |  |  | active | 
CC1CCN(CC#Cc2ccc(-c3ccc(Cl)cc3Cl)s2)CC1 [Example 274] |  |  | active | 
CC1CCN(CC#Cc2ccc(C(F)(F)F)cc2)CC1.Cl [Example 1042] | active |  |  | effect on the larvae (mortality) [6]: active; effect on the eggs and hatched larvae (mortality) [7]: active
CC1CCN(CC#Cc2ccc(Cl)c(C(F)(F)F)c2)CC1 [Example 14] | active |  |  | effect on the larvae (mortality) [2]: active
CCc1ccc(C#CCN2CCC(C)CC2)cc1F [Example 254] | active | active |  | 
Cc1cc(C#CCN2CCC(C)CC2)sc1Br [Example 213] |  | active |  | 
CN1CCN(CC#Cc2cc(C(F)(F)F)cc(C(F)(F)F)c2)CC1 [Example 51] |  |  |  | mortality among the leafhopper larvae [5]: active
CC1CCN(CC#Cc2nc(C(F)(F)F)ccc2C(F)(F)F)CC1 [Example 165] |  |  | active | 
CC1CCN(CC#Cc2cc(C(F)(F)F)ccn2)CC1 [Example 203] | active |  |  | mortality among the leafhopper larvae [5]: active; effect on the eggs and hatched larvae (mortality) [7]: active

Compound | effect on the eggs and hatched larvae (mortality) [1] | larvicidal activity [3] | percentage of larvae immobilized (contact activity) [4] | further results
Cc1cc(C#CCN2CCC(C)CC2)sc1-c1ccc(-c2ccccc2)cc1 [Example 237] |  |  | active | 
Cc1ccccc1-c1ccc(C#CCN2CCC(C)CC2)cc1 [Example 183] | active |  | active | 
CC1CCN(CC#Cc2ccc([N+](=O)[O-])s2)CC1 [Example 208] |  |  | active | 
COc1c(Cl)cc(C#CCN2CCC(C)CC2)cc1Cl [Example 17] | active |  |  | effect on the larvae (mortality) [2]: active; effect on the eggs and hatched larvae (mortality) [7]: active
CC1CCN(CC#Cc2ccc(-c3cccnc3Cl)cc2)CC1 [Example 187] |  |  | active | 
CC1CCN(CC#Cc2ccc(C#N)c(Cl)c2)CC1 [Example 289] | active | active |  | 
CC1CCN(CC#Cc2ccc(C(F)(F)F)cc2)CC1 [Example 29] | active |  |  | mortality among the leafhopper larvae [5]: active; effect on the larvae (mortality) [6]: active
Cc1ccc(C#CCN2CCC(C)CC2)s1 [Example 293] |  | active |  | 
FC(F)(F)c1cc(C#CCN2CCCC3CCCCC32)cc(C(F)(F)F)c1 (stereo not drawn) [Example 42] |  |  |  | mortality among the leafhopper larvae [5]: active
CC1CCN(CC#Cc2cc(C(F)(F)F)cc(C(F)(F)F)n2)CC1.CCCCCCCCC(=O)O [Example 1045] | active |  | active | effect on the larvae (mortality) [6]: active
CC1CCN(CC#Cc2cc(C(F)(F)F)cc(C(F)(F)F)c2)CC1C (stereo not drawn) [Example 267] |  | active |  | effect on the eggs and hatched larvae (mortality) [7]: active
CCS(=O)(=O)O.Cc1cc(C(F)(F)F)cc(C#CCN2CCC(C)CC2)n1 [Example 1064] |  | active |  | effect on the eggs and hatched larvae (mortality) [7]: active
Cc1ccc([N+](=O)[O-])cc1-c1ccc(C#CCN2CCC(C)CC2)cc1 [Example 179] | active |  | active | 
Cc1cc(C#CCN2CCC(C)CC2)sc1-c1ccsc1 [Example 238] |  |  | active | 
Cc1cc(C#CCN2CCC(C)CC2)cc(C(F)(F)F)c1.Cl [Example 1069] |  | active |  | effect on the eggs and hatched larvae (mortality) [7]: active
CCC1CCCN(CC#Cc2cc(C(F)(F)F)cc(C(F)(F)F)c2)C1 (stereo not drawn) [Example 32] | active |  |  | mortality among the leafhopper larvae [5]: active; effect on the eggs and hatched larvae (mortality) [7]: active
CC1CCN(CC#Cc2ccc(Cl)s2)CC1 [Example 216] | active | active |  | 
CC1CCN(CC#Cc2ccc(C=O)s2)CC1 [Example 298] |  |  | active | effect on the eggs and hatched larvae (mortality) [7]: active
CC1CCN(CC#Cc2ccc(-c3ccc(F)cc3)s2)CC1 [Example 230] | active |  | active | 
Cc1cc(C)nc(C#CCN2CCC(C)CC2)c1 [Example 294] |  | active |  | 
CC1CCN(CC#Cc2ccc(-c3cccc(Cl)c3Cl)cc2)CC1 [Example 180] | active |  |  | mortality among the leafhopper larvae [5]: active
CC1CCN(CC#Cc2ccc(C(F)(F)F)c(Cl)n2)CC1.Cl [Example 1048] | active |  | active | 
